Consider six compounds from patent US10107794B2, “Methods of using U2-OS cells to identify potential sweet taste modulators” (PepsiCo, Inc., priority 2013, dated 2018).

Common to all, as to type: cell-based
Assay [1] concerns the target T1, sweet receptor T1R2/T1R3 (Homo sapiens, UniProt Q7RTX0+Q8TE23).
T1 construct: Formation of green fluorescent vesicles in TRANSFLUOR U2-OS cells transfected with BacMam encoding Gα15; endogenous in cells; host or cells: TRANSFLUOR U2-OS cells stably expressing β-arrestin-GFP, transfected with BacMam Gα15
T1 sequence (Q8TE23 20-839): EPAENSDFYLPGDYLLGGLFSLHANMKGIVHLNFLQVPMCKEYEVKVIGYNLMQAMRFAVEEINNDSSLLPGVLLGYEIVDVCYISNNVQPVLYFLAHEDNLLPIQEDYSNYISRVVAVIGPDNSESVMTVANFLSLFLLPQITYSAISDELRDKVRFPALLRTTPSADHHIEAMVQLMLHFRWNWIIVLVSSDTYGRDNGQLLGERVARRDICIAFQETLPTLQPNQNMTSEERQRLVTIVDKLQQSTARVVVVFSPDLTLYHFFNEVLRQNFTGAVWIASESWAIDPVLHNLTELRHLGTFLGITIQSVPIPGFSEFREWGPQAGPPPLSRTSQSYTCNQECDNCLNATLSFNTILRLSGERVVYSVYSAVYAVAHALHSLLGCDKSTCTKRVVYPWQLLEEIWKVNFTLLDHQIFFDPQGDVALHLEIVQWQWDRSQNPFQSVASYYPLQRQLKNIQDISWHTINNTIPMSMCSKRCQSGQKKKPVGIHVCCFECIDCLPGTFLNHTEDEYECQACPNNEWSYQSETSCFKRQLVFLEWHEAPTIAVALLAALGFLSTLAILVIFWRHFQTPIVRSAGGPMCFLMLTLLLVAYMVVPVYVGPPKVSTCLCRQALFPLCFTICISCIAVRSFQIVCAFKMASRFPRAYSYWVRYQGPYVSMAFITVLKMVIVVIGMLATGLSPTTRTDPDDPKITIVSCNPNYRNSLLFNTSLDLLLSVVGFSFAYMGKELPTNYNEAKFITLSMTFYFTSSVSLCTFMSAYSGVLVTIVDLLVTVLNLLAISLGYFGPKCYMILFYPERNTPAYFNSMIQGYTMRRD
T1 sequence (Q7RTX0 21-852): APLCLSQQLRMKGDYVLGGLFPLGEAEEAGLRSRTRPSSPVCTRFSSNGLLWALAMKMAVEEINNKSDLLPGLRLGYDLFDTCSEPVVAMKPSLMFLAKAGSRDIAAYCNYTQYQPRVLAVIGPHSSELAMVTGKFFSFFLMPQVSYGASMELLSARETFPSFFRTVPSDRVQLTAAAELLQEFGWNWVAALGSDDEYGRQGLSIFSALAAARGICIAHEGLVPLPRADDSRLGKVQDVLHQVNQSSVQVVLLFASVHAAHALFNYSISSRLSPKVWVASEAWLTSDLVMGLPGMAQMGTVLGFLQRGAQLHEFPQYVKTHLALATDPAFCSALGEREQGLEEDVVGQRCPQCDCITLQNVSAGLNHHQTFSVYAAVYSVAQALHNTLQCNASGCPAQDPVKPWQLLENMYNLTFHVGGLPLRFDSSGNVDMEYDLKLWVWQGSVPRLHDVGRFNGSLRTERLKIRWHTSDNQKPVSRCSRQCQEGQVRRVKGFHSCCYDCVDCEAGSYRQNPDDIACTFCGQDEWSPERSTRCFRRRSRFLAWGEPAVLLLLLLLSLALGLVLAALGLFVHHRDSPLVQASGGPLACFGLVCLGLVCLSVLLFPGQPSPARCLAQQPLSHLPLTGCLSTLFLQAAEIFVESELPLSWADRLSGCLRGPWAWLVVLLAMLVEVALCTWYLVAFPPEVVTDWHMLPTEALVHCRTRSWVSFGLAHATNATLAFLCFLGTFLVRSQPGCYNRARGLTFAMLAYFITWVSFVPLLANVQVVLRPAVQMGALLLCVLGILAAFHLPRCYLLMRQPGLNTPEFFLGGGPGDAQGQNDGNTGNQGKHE
Nature of the assay: pERK1/2 assay in U2-OS cells transfected with Gα15. The conditions noted are these: for pERK1/2 activation: U2-OS cells overexpressing Gα15 (6 μl/40,000 cells), 100 mM. How it is done: (§1) U2-OS cells were transiently transfected with 0.5-12 μl of BacMam encoding G protein, gustducin (Gα15, Gα16gust44) per 40,000 cells during 24 h or 48 h. Transfected cells were seeded at density of 5,000 cells/well on PDL-coated 384-well plates.
For pERK1/2 studies, growth media was replaced with media without serum for 2 h. U2-OS cells were treated with 100 mM Sweet compounds with or without of U73122 (10 μM) and with or without […] (20 mM). Control groups of cells also received DMSO (0.1%) in medium. The fixed cells were stained with rabbit anti-phospho-p44/p42 MAPK (pERK1/2) antibodies from Cell Signaling Technologies, then with secondary Alexa 488-conjugated antibodies (Life Technology) and HOECHST 33342. Images were acquired on an ImageXpressMicro (MDC) and analyzed with MWCS Module.
The phosphorylation of ERK1/2 is a common downstream event following GPCR activation via the PLCβ2-IP3 pathway. Growth media was replaced with Dulbecco's phosphate buffered saline (DPBS) without serum for 2 h. […] For each data point, average of Mean Cell Integrated intensity and standard deviation are calculated from quadruplicate data points. […]

Assay [2] has as its target T2, sweet taste receptor T1R2/T1R3/Gα15 (Homo sapiens, UniProt Q7RTX0+Q8TE23).
T2 construct: expressed in transfected cells; host or cells: JUMP-IN T-REX U2-OS cells
T2 sequence (Q8TE23 20-839): T1 sequence (Q8TE23 20-839)
T2 sequence (Q7RTX0 21-852): T1 sequence (Q7RTX0 21-852)
The assay is described as follows: Calcium assay (FLIPR) in JUMP-IN T-REX U2-OS cells with doxycycline-inducible T1R2/T1R3/Gα15. The conditions noted are these: U73122. How it is done:
JUMP-IN T-REX U2-OS cells were transfected with the PJTI-R4EXP-CMV-TO-T1R3/T1R2/Gα15-pA and JTI-R4 Integrase vectors (Life Technology).
The peak increase in fluorescence over baseline was determined and is expressed as relative fluorescence units (RFU).

Assay [3] addresses T1, sweet receptor T1R2/T1R3. Nature of the assay: pERK1/2 assay in parental U2-OS cells (high content imaging). The conditions noted are these: 100 mM, 5, 15 and 30 minutes. How it is done:
U2-OS cells were grown in McCoy media supplemented with 10% fetal bovine serum. Cells were seeded at density of 5,000 cells/well on PDL-coated 384-well plates.
For pERK1/2 studies, growth media was replaced with media without serum for 2 h. […] (20 mM). Control groups of cells also received DMSO (0.1%) in medium. […] Images were acquired on an ImageXpressMicro (MDC) and analyzed with MWCS Module.
The phosphorylation of ERK1/2 is a common downstream event following GPCR activation via the PLCβ2-IP3 pathway. Growth media was replaced with Dulbecco's phosphate buffered saline (DPBS) without serum for 2 h. […] For each data point, average of Mean Cell Integrated intensity and standard deviation are calculated from quadruplicate data points.

Assay [4] addresses T1, sweet receptor T1R2/T1R3. Nature of the assay: Calcium assay (FLIPR) in U2-OS cells transfected with Gα15. The settings on record: U2-OS transfected with Gα15 BacMam; 100 mM. The method, then:
as §1
Calcium traces in Fluo-4AM loaded cells were recorded over time in FLIPR^Tetra (MDC) with λEX=470-495 nm and λEM=515-575 nm. The peak increase in fluorescence over baseline was determined and is expressed as relative fluorescence units (RFU).

SMILES strings stand for the structures.

`OC[C@H]1O[C@H](O[C@H]2[C@H](O)[C@@H](O)C(O)O[C@@H]2CO)[C@H](O)[C@@H](O)[C@@H]1O` (mixture of isomers) [maltose]: the pERK1/2 activation result on sweet receptor T1R2/T1R3 [1] is “increased pERK1/2 activity”.
Consider `COc1ccc2c(c1)CC[C@@H]1[C@@H]2CC[C@]2(C)[C@@H](NCCCCCCN3C(=O)C=CC3=O)CC[C@@H]12` [U73122], for which, in assay [2], the “Effect on Ca2+ release upon treatment with D-glucose and D-fructose” value was “abolished”; the “Effect on Ca2+ response after stimulation with sucrose and sucralose” value is reported as “had no effect”. Further, the “Blockade of pERK1/2 activation” value at sweet receptor T1R2/T1R3 [1] (U73122 10 μM, U2-OS cells transfected with Gα15) was “blocked”.
Take `O=C[C@H](O)[C@@H](O)[C@H](O)[C@H](O)CO` [D-glucose]: the pERK1/2 activation entry was “induced pERK1/2 activation in a time-dependent manner” at sweet receptor T1R2/T1R3 [3], “activates pERK1/2” on sweet receptor T1R2/T1R3 [3] (listed as glucose), “induced pERK1/2 activation in a time-dependent manner” on sweet receptor T1R2/T1R3 [1] and “increased pERK1/2 activity” on sweet receptor T1R2/T1R3 [1] (listed as glucose). Moreover, the “Ca2+ response” value on sweet receptor T1R2/T1R3 [4] was “significantly increased Ca^(2+) response”.
`O=C(CO)[C@@H](O)[C@H](O)[C@H](O)CO` [D-fructose]: the “Ca2+ response” value on sweet receptor T1R2/T1R3 [4] was “significantly increased Ca^(2+) response”.
Take `OC[C@H]1O[C@H](O[C@]2(CCl)O[C@H](CCl)[C@@H](O)[C@@H]2O)[C@H](O)[C@@H](O)[C@H]1Cl` [sucralose]: the “Ca2+ response” value at sweet receptor T1R2/T1R3 [4] is given as “induced Ca^(2+) response”.
On the same count and under the same terms, the entry for `OC[C@H]1O[C@@](CO)(O[C@H]2O[C@H](CO)[C@@H](O)[C@H](O)[C@H]2O)[C@@H](O)[C@@H]1O` [sucrose] is “significantly increased Ca^(2+) response”.
